Laboratory results reported in patent US11519859B2, “Rhodol-based thallium sensors for high-throughput screening of potassium channels” (priority 2018, dated 2022).

Key:
[1] = system: HEK-293 cells co-expressing GIRK1 and GIRK2; conditions: dye loading 1 h, 1 mM Tl^+ stimulus; for on/off (Tl^+ flux assay), maximum fold increase in fluorescence after Tl^+ addition: 10 μM ML297, 2 mM Allura Red AC, n = 6
Description: HEK-293 cells co-expressing GIRK1 and GIRK2 were cultured to 80% confluence in a T75 flask (Techno Plastic Products, Trasadingen, CH) at 37° C. and 5% CO2 in medium consisting of Minimal Essential Medium (Cellgro, Manassas, Va.) containing 1× Glutagro (Cellgro, Manassas, Va.) and 10% (v/v) heat-inactivated fetal bovine serum (Life Technologies, Carlsbad, Calif.). The cells were dislodged by treatment with TrypLE (Gibco/Life Technologies, Carlsbad, Calif.), diluted in medium, and plated on clear bottomed, black-walled, amine coated 384 well plates (BD Biosciences, Billerica, Mass.) at a density ˜20,000 cells per well. The plated cells were incubated overnight at 37° C. and 5% CO2 and used for the assay the next day.
Dye loading solutions of Thallos were prepared by dissolving a 25 μg aliquot in 30 μL of 6.7% Pluoronic F-127 (w/v) in DMSO and diluting the resulting solution 1:1000 into assay buffer. Culture medium was removed and replaced with 20 μL of dye loading buffer and incubated in the dark at room temperature for 1 h.
Assay—Assays were conducted on a WaveFront Biosciences Panoptic 1 or 2 (WaveFront Biosciences, Franklin, Tenn.) as indicated. Dye loading solutions were removed and replaced with assay buffer immediately before imaging unless otherwise noted. 10 s following commencement of plate imaging, 20 μL of compound at 2.5× concentration in assay buffer was added and incubated for 120 s at which point 10 μL of Tl^+ at 5× concentration in stimulus buffer (125 mM NaHCO3, 1.8 mM CaSO4, 1 mM MgSO4, 5 mM glucose, 10 mM HEPES, pH 7.4, and T12SO4), and images taken for the following 120 s.
1 mM of T12SO4 (final concentration) was used for stimulus. Assay and stimulus buffers were supplemented with 2 mM of Allura Red AC. […] On/off ratios were calculated by dividing the fluorescence intensity after saturation following Tl^+ addition by the fluorescence intensity immediately after compound addition (n=6).

[2] = Determination of photochemical properties of saponified dyes; type: physicochemical; conditions: for λmax (absorption maximum) / ε (molar absorptivity) / λem (fluorescence emission maximum): after saponification, 150 mM KCl, 10 mM HEPES, 50 μM EDTA, pH = 7.22; for ε (molar absorptivity): at λmax
Description: Evaluation of the photochemical properties of the active Thallium sensing species was accomplished by saponifying 10 μL of each pro-dye stock solution by incubating with 90 μL of 0.1 M KOH for 20 min at 37° C. with the exception of 8b which was treated with 1% NH4OH for 1 h at 37° C. The saponified compounds were diluted into 150 mM KCl buffered with 10 mM HEPES, pH=7.22 with 50 μM of EDTA. All photochemical measurements were taken in this buffer. Absorbance and fluorescence emission spectra were recorded on a Molecular Devices Spectromax M5 using polystyrene cuvettes with path length=1 cm at 23° C. Molar absorptivities are reported for λmax. The emission wavelengths monitored for recording excitation spectra, the excitation wavelengths used for recording emission spectra, and the corresponding emission cutoff filters used are listed in Table 2 below, and representative excitation and emission spectra are shown in FIG. 7.
To determine the in vitro photochemical properties of the active Tl^+ sensing species, 8a-m were treated with base to remove the acetoxymethyl esters and aryl acetate and then diluted into 10 mM HEPES buffered 150 mM KCl with 50 μM EDTA at pH=7.22.

GIRK1 and GIRK2 = molecular target: T1, GIRK1 and GIRK2 (Homo sapiens, UniProt P48051+P48549); experiment: ML297 concentration response curves by Tl+ flux assay; type: cell-based
T1 construct: expressed in transfected cells; host or cells: HEK-293
T1 sequence (P48549 1-501): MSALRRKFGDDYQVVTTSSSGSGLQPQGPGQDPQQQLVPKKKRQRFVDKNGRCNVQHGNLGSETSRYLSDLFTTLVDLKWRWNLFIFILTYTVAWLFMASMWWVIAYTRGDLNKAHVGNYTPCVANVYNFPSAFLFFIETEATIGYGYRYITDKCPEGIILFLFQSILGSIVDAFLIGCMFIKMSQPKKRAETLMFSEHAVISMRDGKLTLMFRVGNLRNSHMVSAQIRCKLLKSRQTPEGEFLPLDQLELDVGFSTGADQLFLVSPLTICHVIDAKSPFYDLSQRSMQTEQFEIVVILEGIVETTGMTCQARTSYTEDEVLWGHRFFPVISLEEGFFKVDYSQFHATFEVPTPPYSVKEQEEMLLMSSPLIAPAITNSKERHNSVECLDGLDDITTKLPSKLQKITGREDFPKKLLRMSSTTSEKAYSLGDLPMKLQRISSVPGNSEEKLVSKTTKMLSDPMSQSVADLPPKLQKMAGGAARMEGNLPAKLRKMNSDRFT
T1 sequence (P48051 1-423): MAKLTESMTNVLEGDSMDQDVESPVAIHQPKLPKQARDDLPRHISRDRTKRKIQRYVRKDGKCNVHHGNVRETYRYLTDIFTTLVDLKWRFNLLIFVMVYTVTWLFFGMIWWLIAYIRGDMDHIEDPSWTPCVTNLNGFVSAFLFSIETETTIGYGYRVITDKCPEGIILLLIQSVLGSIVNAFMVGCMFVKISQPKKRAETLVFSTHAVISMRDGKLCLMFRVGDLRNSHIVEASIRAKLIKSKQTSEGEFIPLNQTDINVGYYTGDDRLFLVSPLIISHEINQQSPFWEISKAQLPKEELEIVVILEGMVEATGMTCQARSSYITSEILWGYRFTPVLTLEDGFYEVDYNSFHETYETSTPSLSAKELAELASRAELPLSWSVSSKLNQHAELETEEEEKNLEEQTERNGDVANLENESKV
Description: ML297 concentration response curves—In general, all concentration-response data were collected on a WaveFront Biosciences Panoptic 2. Thallos treated cells were imaged using 482/35 nm excitation and 536/40 nm emission filters. 8c treated cells were imaged using 529/24 nm excitation and 565/24 nm emission filters (unless otherwise noted). FluxOR Red treated cells were imaged using 544/24 nm excitation and 593/40 nm emission filters (all filters purchased from Semrock, Rochester, N.Y.). FluxOR Red reagent was prepared according to the manufacturer's procedure. 5 μM of 8c was used for dye loading for all conditions.
FluxOR Red procedure with background suppressor. The manufacturer's procedure was followed with the exceptions that the dye loading solution was replaced with 20 μL of assay buffer, solutions of ML297 were prepared in assay buffer plus background suppressor, 20 μL of compound solution was added and 10 μL stimulus buffer (basal) was added according to the general assay protocol described above.
FluxOR Red procedure without background suppressor. The FluxOR Red manufacturer's procedure was followed except the background suppressor was replaced by H2O in all buffers.
Bicarbonate buffer with Allura Red AC. The assay and stimulus buffers described in the general Tl^+ flux procedure were used for dye loading, assay buffer with ML297, and stimulus buffer. All buffers were supplemented with 1 mM of Allura Red AC. The wash step to remove dye loading buffer was omitted.
Bicarbonate buffer without Allura Red AC. The general Tl^+ flux procedure was followed without any solutions supplemented with Allura Red AC.
The fluorescence intensity values of the first 6 time points for each well were averaged and the fluorescence intensity for all time points in the well was divided by this value to provide F/Fo for each time point. The average F/Fo of the vehicle control was then subtracted from each curve and the normalized, control subtracted fluorescence intensity value was sampled at a time point several seconds after Tl^+ addition. […] Fold increases in fluorescence reported in the main paper were calculated by averaging F/Fo between 100 and 110 s after Tl^+ addition. Data presented in FIG. 3 and FIG. 6 were obtained using 8c with the FluxOR Red kit as described above under the FluxOR Red with background suppressor procedure.
The performance of 8c was evaluated in a Tl^+ flux assay to generate a concentration response curve (CRC) of the GIRK activator ML297. […] Normalized, control subtracted fluorescence intensity values were sampled along the curves following Tl^+ addition at each concentration and a CRC was fit using GraphPad Prism (FIG. 3B).

Compound	λmax (absorption maximum) [2] [nm]	ε (molar absorptivity) [2] [M⁻¹ cm⁻¹]	on/off (Tl^+ flux assay), maximum fold increase in fluorescence after Tl^+ addition [1] [fold]	λem (fluorescence emission maximum) [2] [nm]	further results
COc1cc(NC(=O)c2ccc3c(c2)C(=O)OC32c3ccc(NC(C)=O)cc3Oc3cc(OC(C)=O)ccc32)ccc1N(CC(=O)OCOC(C)=O)CC(=O)OCOC(C)=O (centres unmarked) [Compound 8b, bis(acetoxymethyl) 2,2′-((4-(3′-acetamido-6′-acetoxy-3-oxo-3H-spiro[isobenzofuran-1,9′-xanthen]-5-ylcarboxamido)-2-methoxyphenyl)azanediyl)diacetate]	463	24000			fluorescence and response to Tl^+ in cells (in words) [1]: Fluorescence was not detected; fluorescence of saponified dye (in words) ([2]; reason why spectra were not recorded): very weak fluorescence
CCN(CC)c1ccc2c(c1)Oc1cc(OC(C)=O)ccc1C21OC(=O)c2cc(C(=O)Nc3ccc(N(CC(=O)OCOC(C)=O)CC(=O)OCOC(C)=O)c(OC)c3)ccc21 (centres unmarked) [Compound 8d, bis(acetoxymethyl) 2,2′-((4-(3′-acetoxy-6′-(diethylamino)-3-oxo-3H-spiro[isobenzofuran-1,9′-xanthen]-5-ylcarboxamido)-2-methoxyphenyl)azanediyl)diacetate]	525	55000	3.28 ± 0.04	551	
CCCN(CCC)c1ccc2c(c1)Oc1cc(OC(C)=O)ccc1C21OC(=O)c2cc(C(=O)Nc3ccc(N(CC(=O)OCOC(C)=O)CC(=O)OCOC(C)=O)c(OC)c3)ccc21 (centres unmarked) [Compound 8e, bis(acetoxymethyl) 2,2′-((4-(3′-acetoxy-6′-(dipropylamino)-3-oxo-3H-spiro[isobenzofuran-1,9′-xanthen]-5-ylcarboxamido)-2-methoxyphenyl)azanediyl)diacetate]	527	66000	2.94 ± 0.08	553	
CCCCN(CCCC)c1ccc2c(c1)Oc1cc(OC(C)=O)ccc1C21OC(=O)c2cc(C(=O)Nc3ccc(N(CC(=O)OCOC(C)=O)CC(=O)OCOC(C)=O)c(OC)c3)ccc21 (centres unmarked) [Compound 8f, bis(acetoxymethyl) 2,2′-((4-(3′-acetoxy-6′-(dibutylamino)-3-oxo-3H-spiro[isobenzofuran-1,9′-xanthen]-5-ylcarboxamido)-2-methoxyphenyl)azanediyl)diacetate]	528	58000	1.52 ± 0.01	556	
COc1cc(NC(=O)c2ccc3c(c2)C(=O)OC32c3ccc(NC4CCCCC4)cc3Oc3cc(OC(C)=O)ccc32)ccc1N(CC(=O)OCOC(C)=O)CC(=O)OCOC(C)=O (centres unmarked) [Compound 8g, bis(acetoxymethyl) 2,2′-((4-(3′-acetoxy-6′-(cyclohexylamino)-3-oxo-3H-spiro[isobenzofuran-1,9′-xanthen]-5-ylcarboxamido)-2-methoxyphenyl)azanediyl)diacetate]	514	57000	4.26 ± 0.07	535	
CCCCNc1ccc2c(c1)Oc1cc(OC(C)=O)ccc1C21OC(=O)c2cc(C(=O)Nc3ccc(N(CC(=O)OCOC(C)=O)CC(=O)OCOC(C)=O)c(OC)c3)ccc21 (centres unmarked) [Compound 8h, bis(acetoxymethyl) 2,2′-((4-(3′-acetoxy-6′-(butylamino)-3-oxo-3H-spiro[isobenzofuran-1,9′-xanthen]-5-ylcarboxamido)-2-methoxyphenyl)azanediyl)diacetate]	511	48000	3.50 ± 0.07	533	
Cc1cc(NC(=O)Nc2ccc(F)c(F)c2)n(-c2ccccc2)n1 [ML297]					EC50 (GIRK1 and GIRK2; dye 8c (5 μM, 1 h), FluxOR Red kit with background suppressor, 1 mM Tl^+): 257 ± 3.7 nM; pEC50 and standard error of ML297 activation (GIRK1 and GIRK2; dye 8c (544x/593m filters), FluxOR Red Kit, Background Suppressor +): 6.63 ± 0.01; pEC50 and standard error of ML297 activation (GIRK1 and GIRK2; dye 8c (544x/593m filters), FluxOR Red Kit, Background Suppressor −): 6.66 ± 0.04; pEC50 and standard error of ML297 activation (GIRK1 and GIRK2; dye 8c, FluxOR Red Kit, Background Suppressor +): 6.59 ± 0.01; pEC50 and standard error of ML297 activation (GIRK1 and GIRK2; dye 8c, FluxOR Red Kit, Background Suppressor −): 6.61 ± 0.02; pEC50 and standard error of ML297 activation (GIRK1 and GIRK2; dye 8c, HCO3^− Stimulus Buffer, 1 mM Allura Red AC +): 6.69 ± 0.01; pEC50 and standard error of ML297 activation (GIRK1 and GIRK2; dye 8c, HCO3^− Stimulus Buffer, 1 mM Allura Red AC −): 6.59 ± 0.03; EC50 (GIRK1 and GIRK2; dye 8c, bicarbonate stimulus buffer, 500 μM Tl^+, no-wash, 1 mM Allura Red AC): 204 ± 5.2 nM; pEC50 and standard error of ML297 activation (GIRK1 and GIRK2; dye FluxOR Red, FluxOR Red Kit, Background Suppressor +): 6.64 ± 0.01; pEC50 and standard error of ML297 activation (GIRK1 and GIRK2; dye FluxOR Red, FluxOR Red Kit, Background Suppressor −): 6.41 ± 0.03; pEC50 and standard error of ML297 activation (GIRK1 and GIRK2; dye FluxOR Red, HCO3^− Stimulus Buffer, 1 mM Allura Red AC −): 7.02 ± 0.1; pEC50 and standard error of ML297 activation (GIRK1 and GIRK2; dye Thallos, FluxOR Red Kit, Background Suppressor +): 6.57 ± 0.04; pEC50 and standard error of ML297 activation (GIRK1 and GIRK2; dye Thallos, FluxOR Red Kit, Background Suppressor −): 6.65 ± 0.02; pEC50 and standard error of ML297 activation (GIRK1 and GIRK2; dye Thallos, HCO3^− Stimulus Buffer, 1 mM Allura Red AC +): 6.66 ± 0.01; pEC50 and standard error of ML297 activation (GIRK1 and GIRK2; dye Thallos, HCO3^− Stimulus Buffer, 1 mM Allura Red AC −): 6.61 ± 0.01; EC50 (GIRK1 and GIRK2; dye Thallos, bicarbonate stimulus buffer, 500 μM Tl^+, no-wash, 1 mM Allura Red AC): 219 ± 23 nM; EC50 (GIRK1 and GIRK2; dye Thallos, same procedure (FluxOR Red kit with background suppressor)): 272 ± 23 nM
